Consider 13 compounds from patent US12486253B2, “Therapeutics for the degradation of mutant BRAF” (C4 THERAPEUTICS, INC., priority 2021, dated 2025).

Read-outs that look alike come from different tables or passages of the source.

For the assay, the target named is BRAF V600E (Homo sapiens, UniProt P15056, V600E). As to the kind of experiment: HiBiT cellular BRAF^V600E degradation assay. The format is cell-based. The note with it: for DC50: concentration at which 50% of total cellular BRAF^V600E is degraded; for Emax: read-out: HiBit 24 h Emax. In general terms: HiBiT is a short tag that completes a luciferase, so light tracks the accessible tagged protein.

[1] abbreviates: A375.10 cells, 24 h, residual protein remaining in the cell.

BRAF V600E, sequence (P15056 whole entry V600E): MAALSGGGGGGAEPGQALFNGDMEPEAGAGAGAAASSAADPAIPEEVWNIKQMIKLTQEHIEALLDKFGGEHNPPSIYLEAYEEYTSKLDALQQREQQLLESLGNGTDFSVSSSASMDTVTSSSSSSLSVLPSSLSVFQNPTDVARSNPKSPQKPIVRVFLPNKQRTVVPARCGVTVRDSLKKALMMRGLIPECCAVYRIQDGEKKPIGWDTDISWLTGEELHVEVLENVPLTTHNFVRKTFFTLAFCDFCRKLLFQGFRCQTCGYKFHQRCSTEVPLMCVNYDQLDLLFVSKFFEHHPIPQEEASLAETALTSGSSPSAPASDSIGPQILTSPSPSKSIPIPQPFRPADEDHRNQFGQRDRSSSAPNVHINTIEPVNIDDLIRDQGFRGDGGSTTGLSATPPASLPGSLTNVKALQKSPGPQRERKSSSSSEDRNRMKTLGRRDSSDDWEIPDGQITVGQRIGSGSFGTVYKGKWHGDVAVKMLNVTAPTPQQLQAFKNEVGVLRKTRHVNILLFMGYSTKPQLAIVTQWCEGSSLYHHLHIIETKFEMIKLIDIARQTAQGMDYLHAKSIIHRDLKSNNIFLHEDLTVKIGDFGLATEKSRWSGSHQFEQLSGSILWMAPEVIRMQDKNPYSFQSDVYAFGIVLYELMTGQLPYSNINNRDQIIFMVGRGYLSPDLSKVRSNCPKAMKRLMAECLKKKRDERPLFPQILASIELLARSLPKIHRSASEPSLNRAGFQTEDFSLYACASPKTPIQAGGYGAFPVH

Broadly, the DC50 is the midpoint of the concentration-degradation curve. Low values mean a more potent degrader, high ones a less potent degrader. In general, Emax refers to the maximal effect, on the per cent scale that the assay sets. In the case of `CN(C1CC1)S(=O)(=O)Nc1ccc(F)c(Oc2ccc3ncn(-c4cnc(N5CCN(C(=O)CN6CCC(c7ccc(N[C@H]8CCC(=O)NC8=O)cc7F)CC6)CC5)nc4)c(=O)c3c2)c1C#N` [Example 127, 6-[2-cyano-3-[[cyclopropyl(methyl)sulfamoyl]amino]-6-fluorophenoxy]-3-[2-[4-[2-[4-[4-[[(3S)-2,6-dioxopiperidin-3-yl]amino]-2-fluorophenyl]piperidin-1-yl]acetyl]piperazin-1-yl]pyrimidin-5-yl]-4-oxoquinazoline], half-maximal degradation (A375.10 cells, 24 h) (DC50) was put at 20.7 nM. Also, the maximal response (Emax) under setting [1] came out at 8.95%.
`CCN(C)S(=O)(=O)Nc1ccc(F)c(Oc2ccc3ncn(CCC4(F)CCN(C(=O)CN5CCC(c6ccc(NC7CCC(=O)NC7=O)cc6F)CC5)CC4)c(=O)c3c2)c1C#N` (centres unmarked) [Example 13, 6-[2-cyano-3-[[ethyl(methyl)sulfamoyl]amino]-6-fluorophenoxy]-3-[2-[1-[2-[4-[4-[(2,6-dioxopiperidin-3-yl)amino]-2-fluorophenyl]piperidin-1-yl]acetyl]-4-fluoropiperidin-4-yl]ethyl]-4-oxoquinazoline] displayed a DC50 (A375.10 cells, 24 h) of 26.2 nM. Further, under setting [1], the maximal response (Emax) was 8.27%.
Turning to `CCN(C)S(=O)(=O)Nc1ccc(F)c(Oc2ccc3ncn([C@H]4COC5(CCN(C(=O)CC6CCN(c7cc8c(cc7F)c(N7CCC(=O)NC7=O)nn8C)CC6)CC5)C4)c(=O)c3c2)c1C#N` [Example 180, (3R)-3-[6-[2-cyano-3-[[ethyl(methyl)sulfamoyl]amino]-6-fluorophenoxy]-4-oxoquinazolin-3-yl]-8-[2-[1-[3-(2,4-dioxo-1,3-diazinan-1-yl)-5-fluoro-1-methylindazol-6-yl]piperidin-4-yl]acetyl]-1-oxa-8-azaspiro[4.5]decane], the Emax turned out to be 20.6%. In addition, for the setting “A375.10 cells, 24 h”, half-maximal degradation (DC50) was put at 9.62 nM.
For the setting “A375.10 cells, 24 h”, `CCN(C)S(=O)(=O)Nc1ccc(F)c(Oc2ccc3ncn(-c4cnc(N5CCN(C(=O)CN6CCC(c7ccc(NC8CCC(=O)NC8=O)cc7F)CC6)CC5)nc4)c(=O)c3c2)c1C#N` (centres unmarked) [Example 84, 6-[2-cyano-3-[[ethyl(methyl)sulfamoyl]amino]-6-fluorophenoxy]-3-[2-[4-[2-[4-[4-[(2,6-dioxopiperidin-3-yl)amino]-2-fluorophenyl]piperidin-1-yl]acetyl]piperazin-1-yl]pyrimidin-5-yl]-4-oxoquinazoline] showed a DC50 of 9.97 nM. The Emax under setting [1] came out at 9.26%.
On to `Cn1nc(C2CCC(=O)NC2=O)c2ccc(C3CCN(CC(=O)N4CCC5(CC4)C[C@@H](n4cnc6ccc(Oc7c(F)ccc(NS(=O)(=O)N8CC[C@@H](F)C8)c7C#N)cc6c4=O)CO5)CC3)cc21` (stereo partly drawn) [Example 165, (3R)—N-[2-cyano-3-[3-[(3R)-8-[2-[4-[3-(2,6-dioxopiperidin-3-yl)-1-methylindazol-6-yl]piperidin-1-yl]acetyl]-1-oxa-8-azaspiro[4.5]decan-3-yl]-4-oxoquinazolin-6-yl]oxy-4-fluorophenyl]-3-fluoropyrrolidine-1-sulfonamide], for which the half-maximal degradation concentration (DC50) (A375.10 cells, 24 h) worked out at 100 nM. Under setting [1], the maximal response (Emax) was 17.8%.
In the same order, the values of `CCN(C)S(=O)(=O)Nc1ccc(F)c(Oc2ccc3ncn([C@H]4COC5(CCC(N6CCC(c7cc8c(cc7F)c(N7CCC(=O)NC7=O)nn8C)CC6)CC5)C4)c(=O)c3c2)c1C#N` (stereo partly drawn) [Example 200, 6-[2-cyano-3-[[ethyl(methyl)sulfamoyl]amino]-6-fluorophenoxy]-3-[(3R)-8-[4-[3-(2,4-dioxo-1,3-diazinan-1-yl)-5-fluoro-1-methylindazol-6-yl]piperidin-1-yl]-1-oxaspiro[4.5]decan-3-yl]-4-oxoquinazoline] are 15.9 nM and 26.9%.
In the same order, the values of `CCN(C)S(=O)(=O)Nc1ccc(F)c(Oc2ccc3ncn(CCC4CCN(C(=O)CN5CCC(c6ccc7c(C8CCC(=O)NC8=O)nn(C)c7c6)CC5)CC4)c(=O)c3c2)c1C#N` (centres unmarked) [Example 144, 6-[2-cyano-3-[[ethyl(methyl)sulfamoyl]amino]-6-fluorophenoxy]-3-[2-[1-[2-[4-[3-(2,6-dioxopiperidin-3-yl)-1-methylindazol-6-yl]piperidin-1-yl]acetyl]piperidin-4-yl]ethyl]-4-oxoquinazoline] are 28.4 nM and 16.7%.
In the same order, the values of `CCN(C)S(=O)(=O)Nc1ccc(F)c(Oc2ccc3ncn(-c4cnc(N5CCN(C(=O)CN6CCC(c7ccc(NC8CCC(=O)NC8=O)cc7F)CC6)CC5)nc4)c(=O)c3c2F)c1C#N` (centres unmarked) [Example 86, 6-[2-cyano-3-[[ethyl(methyl)sulfamoyl]amino]-6-fluorophenoxy]-3-[2-[4-[2-[4-[4-[(2,6-dioxopiperidin-3-yl)amino]-2-fluorophenyl]piperidin-1-yl]acetyl]piperazin-1-yl]pyrimidin-5-yl]-5-fluoro-4-oxoquinazoline] are 8.28 nM and 12.9%.
Regarding `CCN(C)S(=O)(=O)Nc1ccc(F)c(Oc2ccc3ncn(-c4ccc(N5CCN(C(=O)CN6CCC(c7cc(OC)c(NC8CCC(=O)NC8=O)cc7F)CC6)CC5)nc4)c(=O)c3c2)c1C#N` (centres unmarked) [Example 90, 6-[2-cyano-3-[[ethyl(methyl)sulfamoyl]amino]-6-fluorophenoxy]-3-[6-[4-[2-[4-[4-[(2,6-dioxopiperidin-3-yl)amino]-2-fluoro-5-methoxyphenyl]piperidin-1-yl]acetyl]piperazin-1-yl]pyridin-3-yl]-4-oxoquinazoline], the maximal response (Emax) came to 10.7%. For the setting “A375.10 cells, 24 h”, this compound gave a 50% degradation concentration (DC50) of 23.5 nM.
For the compound `CCN(C)S(=O)(=O)Nc1ccc(F)c(Oc2ccc3ncn([C@H]4COC5(CCN(C(=O)CN6CCN(c7ccc(C8CCC(=O)NC8=O)cc7F)CC6)CC5)C4)c(=O)c3c2)c1C#N` (stereo partly drawn) [Example 60, (3R)-3-[6-[2-cyano-3-[[ethyl(methyl)sulfamoyl]amino]-6-fluorophenoxy]-4-oxoquinazolin-3-yl]-8-[2-[4-[4-(2,6-dioxopiperidin-3-yl)-2-fluorophenyl]piperazin-1-yl]acetyl]-1-oxa-8-azaspiro[4.5]decane], under “A375.10 cells, 24 h”, half-maximal degradation (DC50) was put at 40.5 nM. Also, the maximal effect (Emax) under setting [1] stood at 13%.
On to `CCN(C)S(=O)(=O)Nc1ccc(F)c(Oc2ccc3ncn([C@H]4COC5(CCN(C(=O)CN6CCC(c7ccc(C8CCC(=O)NC8=O)cc7F)C(F)(F)C6)CC5)C4)c(=O)c3c2)c1C#N` (stereo partly drawn) [Example 65, (3R)-3-[6-[2-cyano-3-[[ethyl(methyl)sulfamoyl]amino]-6-fluorophenoxy]-4-oxoquinazolin-3-yl]-8-[2-[4-[4-(2,6-dioxopiperidin-3-yl)-2-fluorophenyl]-3,3-difluoropiperidin-1-yl]acetyl]-1-oxa-8-azaspiro[4.5]decane], for which, under “A375.10 cells, 24 h”, the DC50 was determined as 9.48 nM. In addition, the Emax under setting [1] was 15.4%.
Taken in the same sequence, the figures for `CCN(C)S(=O)(=O)Nc1ccc(F)c(Oc2ccc3ncn([C@H]4COC5(CCN(C(=O)CN6CCC(c7ccc(NC8CCC(=O)NC8=O)cc7F)CC6)CC5)C4)c(=O)c3c2Cl)c1C#N` (single isomer, unassigned) [Example 77] were 31.8 nM and 9.51%.
Taken in the same sequence, the figures for `CN(CC(F)F)S(=O)(=O)Nc1ccc(F)c(Oc2ccc3ncn(-c4cnc(N5CCN(C(=O)CN6CCC(c7ccc(N[C@@H]8CCC(=O)NC8=O)cc7F)CC6)CC5)nc4)c(=O)c3c2)c1C#N` [Example 119, 6-[2-cyano-3-[[2,2-difluoroethyl(methyl)sulfamoyl]amino]-6-fluorophenoxy]-3-[2-[4-[2-[4-[4-[[(3R)-2,6-dioxopiperidin-3-yl]amino]-2-fluorophenyl]piperidin-1-yl]acetyl]piperazin-1-yl]pyrimidin-5-yl]-4-oxoquinazoline] were 46.9 nM and 12.8%.
